Measurements taken from US9241976B2, “Use of HDL-related molecules to treat and prevent proinflammatory conditions” (THE REGENTS OF THE UNIVERSITY OF CALIFORNIA, priority 2011, dated 2016).

Legend:
CT26 cells = experiment: Tumor-load study: CT26 flank tumors in BALB/c mice; type: in vivo, mouse
Experimental: (§1) 6-week-old BALB/c female mice were given a 100 μL subcutaneous injection of 1×10^6 CT26 cells prepared as a single cell suspension in PBS, and the mice were treated with bHDLor BHDLat 10 mg/kg administered subcutaneously (SQ) daily for 15 days. The mice were sacrificed and tumor weights were measured.
6-week-old BALB/c female mice were given a 100 μl subcutaneous injection of 1×10^6 CT26 cells prepared as a single cell suspension in PBS, treated with peptide at 10 mg/kg by SQ daily for 15 days.
The mice were killed and tumor weights were measured. The tumor volumes were measured using the formula V=½ (L×W^2).
as §1, with “Six-week-old” for “6-week-old”, “[…]” for “μL”, “sc-4F or L-4F at” for “bHDLor BHDLat”, “subcutaneously” for “subcutaneously (SQ)”

HIF-1α = HIF-1α protein expression in human ovarian cancer cell lines, Western blot; type: cell-based
Experimental: OV2008 cells were cultured in RPMI 1640 media with 10% fetal bovine serum, penicillin (100 U/ml), streptomycin (100 μg/ml), 1× minimal essential medium nonessential amino acid solution (Invitrogen, Carlsbad, Calif.), and insulin (0.25 U/ml) (Invitrogen). CAOV-3 cells were cultured in complete media consisting of Dulbecco's modified Eagle's medium with high glucose and L-glutamine (2 mM), 10% fetal bovine serum, penicillin (100 U/ml), streptomycin (100 μg/ml), and insulin (0.02 U/ml). To create hypoxic conditions, cells were transferred to a hypoxic chamber (model 3130; Thermo Fisher Scientific, Waltham, Mass.), where they were maintained at 37° C. in an atmosphere containing 5% CO2, 1% O2, and 94% N2. L-4F (the peptide Ac-D-W-F-K-A-F-Y-D-K-V-A-E-K-F-K-E-A-F-NH2 (SEQ ID NO: 12) synthesized from all L amino acids) was dissolved in water at 1 mg/ml (freshly prepared every time) and used between 1 and 10 μg/ml. L-5F was synthesized by Peptisyntha Inc. (Torrance, Calif.), dissolved in ABCT buffer (50 mM ammonium bicarbonate, pH 7.0, containing 0.1 mg/ml Tween 20) at 1 mg/ml, and diluted to the required concentrations before use. Cobalt chloride (CoCl2), insulin, cycloheximide (CHX), and N-(benzyloxycarbonyl)leucinylleucinylleucinal-Z-Leu-Leu-Leu-al (MG-132) were purchased from Sigma-Aldrich (St. Louis, Mo.). LPA (Avanti Polar Lipids, Alabaster, Ala.) in chloroform was dried as recommended by the manufacturer, dissolved in ethanol at a concentration of 20 mM as a stock solution, and diluted to the required concentrations in the corresponding cell culture media before use.
Western blot analyses were performed as described previously (Gao et al., 2011). In brief, cell lysates were collected in a lysis buffer containing 0.1 MNaCl, 5 mM EDTA, 50 μM sodium orthovanadate, 1% Triton X-100, and protease inhibitor tablet (Roche Diagnostics, Indianapolis, Ind.) in 50 mM Tris buffer, pH 7.5, loaded onto 4 to 12% Bis-Tris gel (Invitrogen), transferred to polyvinylidene difluoride membrane, and incubated with the appropriate antibodies. Anti-pThr^202/Tyr^204-Erk, anti-Erk, anti-pThr^389-p70 S6 kinase, anti-p70 S6 kinase, anti-pSer^473-Akt, and anti-Akt antibodies were purchased from Cell Signaling Technology (Danvers, Mass.); mouse anti-human HIF-1α antibody was purchased from BD Pharmingen (San Diego, Calif.); rabbit anti-mouse HIF-1α antibody was purchased from Abcam Inc. (Cambridge, Mass.); and anti-GAPDH antibody was purchased from Santa Cruz Biotechnology Inc. (Santa Cruz, Calif.).

[1] = system: VEGF, glucose transporter 1, and aldolase-A; experiment: HIF-1α target gene mRNA, real-time RT-PCR in OV2008 cells; type: cell-based, human; conditions: 10 μg/ml pretreatment 1 h
Experimental: Total RNA was extracted from cells by using a PureLink RNA Mini Kit (Invitrogen). The quantity and quality of RNA were assessed by using a SmartSpec 3000 Spectrophotometer (Bio-Rad Laboratories, Hercules, Calif.). cDNA was synthesized by using the High Capacity cDNA Reverse Transcription Kit (Applied Biosystems, Foster City, Calif.) according to the manufacturer's instructions. PCRs were performed by using the CFX96 realtime PCR system (Applied Biosystems). The cycling conditions were as follows: 3 min at 95° C. followed by 40 cycles of 95° C., 10 s; 60° C., 10 s; 72° C., 30 s followed by a final extension at 72° C. for 10 min. Each 25-μl reaction contained 0.4 μg of cDNA, 12.5 μl of SYBR Green qPCR SuperMix (Bio-Rad Laboratories), and 250 nM forward and reverse primers in nuclease-free water. […]

[2] = Example 3, 10 mg/kg subcutaneous daily for 15 days

In the case of “Ac-DWFKAFYDKVAEKFKEAF-NH2 [L-4F, Ac-D-W-F-K-A-F-Y-D-K-V-A-E-K-F-K-E-A-F-NH2]”, the flank tumor volume (CT26 cells; [2]) is reported as 313 mm^3, the flank tumor weight (CT26 cells; [2]) is reported as 179 mg and the flank tumor weights (CT26 cells; Example 5, 10 mg/kg subcutaneously daily for 15 days) is reported as 389 mg. For the same substance, the “CoCl2- and insulin-induced HIF-1α expression” value (HIF-1α; CAOV-3 cells) was “dose-dependently inhibited”, the “HIF-1α expression, post-treatment” value (HIF-1α; OV2008 cells stimulated first with CoCl2 or insulin 3 h or 24 h, 10 μg/ml) was “significantly decreased” and the “hypoxia-induced (low oxygen 1% O2, CoCl2) HIF-1α protein expression” value (HIF-1α; OV2008 cells, pretreatment) was “dose-dependently suppressed”. The “CoCl2- and insulin-induced HIF-1α expression” value (HIF-1α; SKOV3 cells) was “dose-dependently inhibited” and the “CoCl2- and insulin-induced increase in mRNA levels of HIF-1α target genes” value [1] was “abrogated”.
